Series [1] has as its system G1E-ER-GATA-1 cells. The series can be described thus: 5-ALA rescue of heme biosynthesis, qRT-PCR of zinc transporter genes. The note with it: 1 mM 5-ALA to bypass ALAS-2 and rescue heme biosynthesis; FIG. 3B. Format: cell-based, murine. Here is the method: Cell culture. G1E-ER-GATA-1 cells were cultured in Iscove's modified Dulbecco's medium (IMDM; Gibco) containing 15% FBS (Gemini), 1% penicillin-streptomycin (Gemini), 2 U/ml erythropoietin (Amgen), 120 nM monothioglycerol (Sigma), and 0.6% conditioned medium from a Kit ligand-producing CHO cell line, and 1 μg/ml puromycin (Gemini). ER-GATA-1 activity was induced by adding 1 μM β-estradiol (Steraloids) to media. To rescue heme synthesis, 1 mM 5-aminolevulinic acid hydrochloride (5-ALA; Sigma) was added to media.
(§1) qRT-PCR. Total RNA was purified from 0.4-2×10^6 cells with TRIzol® (Life Technologies). RNA was treated with DNase I (Life Technologies) for 15 min at room temperature. DNase I was inactivated by EDTA and heating at 65° C. for 10 min. DNase I-treated RNA was incubated with 125 ng of a 5:1 mixture of oligo (dT) primers and random hexamer at 68° C. for 10 min. RNA/primers were incubated with Moloney MLV reverse transcriptase (Life Technologies), 10 mM DTT (Life Technologies), RNAsin® (Promega), and 0.5 mM deoxynucleoside triphosphates at 42° C. for 1 h, and then heat inactivated at 98° C. for 5 min. Real-time PCR reactions were conducted with Power SYBR® Green Master Mix (Applied Biosystems) using ViiA™ 7 Real-Time PCR system (Applied Biosystems). Primer sequences are described in Table 1.

Series [2] has as its system mononuclear cells from G-CSF-mobilized peripheral blood. The series can be described thus: Heme quantitation after succinylacetone in human erythroid differentiation culture. Format: cell-based. The following applies: succinylacetone during the last four days of culture; day 20. Here is the method:
(§2) Primary human mononuclear cells were isolated from G-CSF-mobilized peripheral blood using Histopaque® (Sigma). Cells were maintained in StemSpan™ SFEM medium (Stem Cell Technologies) supplemented with 1×CC100 cytokine mix (Stem Cell Technologies) for 4 days. […]
Heme quantitation. […] Electronic absorption spectra of cleared lysates were recorded on a Varian Cary 4 Bio spectrophotometer, and the oxyhemoglobin concentration of each cleared lysate was calculated using extinction coefficients at 542 nm and 577 nm for human oxyhemoglobin monomers. Total heme in each cleared lysate was determined for two technical replicates using the pyridine hemochrome assay in which 200 μl of a stock solution of 0.1 N NaOH and 33% (v/v) pyridine was combined with 100 μl of the cleared lysate. Upon addition of 2-5 mg of sodium dithionite, electronic absorption spectra were recorded, and total heme concentrations were calculated using known extinction coefficients of the ferrous bis(pyridine) protoheme complex at 525 nm and 556 nm as is known in the art.

For series [3] the test system is unchanged. The series can be described thus: qRT-PCR of gene expression after succinylacetone in human erythroid differentiation culture. Format: cell-based. The following applies: succinylacetone vs no treatment, day 19 and 20. Here is the method:
Primary human mononuclear cells were isolated from G-CSF-mobilized peripheral blood using Histopaque® (Sigma). Cells were maintained in StemSpan™ SFEM medium (Stem Cell Technologies) supplemented with 1×CC100 cytokine mix (Stem Cell Technologies) for 4 days. To induce differentiation, cells were cultured in basal differentiation media [IMDM containing 15% FBS, 2 mM L-glutamine, 1% BSA (Sigma), 500 μg/ml holo human transferrin (Sigma), and 10 [μg/ml insulin (Sigma)] supplemented with 1 μM dexamethasone (Sigma), 1 μM β-estradiol (Steraloids), 5 ng/ml IL-3, 100 ng/ml SCF, and 6 U/ml erythropoietin (Amgen) for 5 days, followed by four days in basal differentiation media supplemented with 50 ng/ml SCF and 6 U/ml erythropoietin and then seven days in basal differentiation media containing 2 U/ml erythropoietin.
as §1

For series [4] the test system is unchanged. The series can be described thus: Cellularity after succinylacetone (flow cytometry, Wright-Giemsa staining). Format: cell-based, human. The following applies: succinylacetone during the last four days of culture. How it is done: as §2
(§3) Flow cytometry. For intracellular zinc quantitation in mouse cells, cells were washed twice with PBS and incubated with 1 l/ml Ghost Dye™ Red 780 (TONBO Biosciences) for 30 min at 4° C. […] Cells were then washed twice with PBS and analyzed. […] Cells were then washed twice with PBS and analyzed. For intracellular zinc quantitation in human cells, cells were washed twice with HBSS and incubated with HBSS containing 1 μM FluoZin™-3 AM, 0.02% Pluronic® F-127, PE-conjugated anti-human CD71 (0.024 μg in 100 μl, eBioscience, 12-0719-42), and APC-conjugated anti-human CD235a (0.006 μg in 100 μl, eBioscience 17-9987-42) for 30 min at room temperature. […] Cells were then washed twice with PBS, stained with DAPI, and analyzed. Samples were analyzed using a BD LSR II (BD Biosciences). […]

Series [5] relates to lineage-negative fetal liver-derived hematopoietic precursors. The series can be described thus: Zinc chelation with TPEN and ZnCl2 add-back, flow cytometry (FluoZin-3, live/dead, CD71, Ter119). In kind it is cell-based, murine. Here is the method: (§4) Primary erythroid precursors from E14.5 murine fetal livers were cultured in StemPro®-34 (Gibco) supplemented with 10% nutrient supplement (Gibco), 1×L-glutamine (Cellgro), 1% penicillin-streptomycin (Gemini), 0.1 mM monothioglycerol (Sigma), 1 NM dexamethasone (Sigma), 0.5 U/ml erythropoietin (Amgen), and 1% conditioned medium from a Kit ligand-producing CHO cell line (expansion culture). To chelate zinc, 10 NM N,N,N′,N′-Tetrakis(2-pyridylmethyl)ethylenediamine (TPEN, Sigma, P4413) was added to the media, and 20 NM ZnCl2 (Fisher Scientific) was added back. After two days, cells were differentiated in IMDM (Gibco) containing 10% FBS (Gemini), 10% plasma-derived serum (PDS; Animal Technologies), 5% protein-free hybridoma medium II (PFHM II; Gibco), 1% penicillin-streptomycin (Gemini), 0.1 mM monothioglycerol (Sigma) and 6 U/ml of erythropoietin (Amgen).
Flow cytometry. For intracellular zinc quantitation in mouse cells, cells were washed twice with PBS and incubated with 1 l/ml Ghost Dye™ Red 780 (TONBO Biosciences) for 30 min at 4° C. Cells were washed once with PBS containing 2% FBS and twice with HBSS, and treated with HBSS containing 1 μM FluoZin™-3 AM (Invitrogen), 0.02% Pluronic® F-127 (Invitrogen), BV421-conjugated anti-mouse CD71 (0.2 μg in 100 μl, Biolegend, 113813), and APC-conjugated anti-mouse Ter119 (0.2 μg in 100 μl, Biolegend, 116212) for 30 min at room temperature. Cells were washed once with HBSS and incubated for 15 min at room temperature. Cells were then washed twice with PBS and analyzed. […] Cells were then washed twice with PBS and analyzed. For intracellular zinc quantitation in human cells, cells were washed twice with HBSS and incubated with HBSS containing 1 μM FluoZin™-3 AM, 0.02% Pluronic® F-127, PE-conjugated anti-human CD71 (0.024 μg in 100 μl, eBioscience, 12-0719-42), and APC-conjugated anti-human CD235a (0.006 μg in 100 μl, eBioscience 17-9987-42) for 30 min at room temperature. […] Cells were then washed twice with PBS, stained with DAPI, and analyzed. Samples were analyzed using a BD LSR II (BD Biosciences). […]

For series [6], the system named is Slc30a1 mRNA. Nature of the series: shRNA-mediated knockdown, qRT-PCR of Slc30a1 mRNA. In kind it is cell-based, mouse. The following applies: off-target check. How it is done: as §4
(§5) qRT-PCR. Total RNA was purified from 0.4-2×10^6 cells with TRIzol® (Life Technologies). RNA was treated with DNase I (Life Technologies) for 15 min at room temperature. DNase I was inactivated by EDTA and heating at 65° C. for 10 min. DNase I-treated RNA was incubated with 125 ng of a 5:1 mixture of oligo (dT) primers and random hexamer at 68° C. for 10 min. […]

In series [7] the test system is Slc39a8 mRNA. Nature of the series: shRNA-mediated knockdown, qRT-PCR of Slc39a8 mRNA. Format: cell-based, mouse. The following applies: Luciferase shRNA as control. How it is done:
as §4, §5

Series [8] concerns lineage-negative hematopoietic precursors (E14.5). Nature of the series: Intracellular zinc (FluoZin-3 flow cytometry) in shRNA knockdown cells. In kind it is cell-based, murine. Here is the method:
(§6) Primary erythroid precursors from E14.5 murine fetal livers were cultured in StemPro®-34 (Gibco) supplemented with 10% nutrient supplement (Gibco), 1×L-glutamine (Cellgro), 1% penicillin-streptomycin (Gemini), 0.1 mM monothioglycerol (Sigma), 1 NM dexamethasone (Sigma), 0.5 U/ml erythropoietin (Amgen), and 1% conditioned medium from a Kit ligand-producing CHO cell line (expansion culture). To chelate zinc, 10 NM N,N,N′,N′-Tetrakis(2-pyridylmethyl)ethylenediamine (TPEN, Sigma, P4413) was added to the media, and 20 NM ZnCl2 (Fisher Scientific) was added back. […]
as §3

Series [9] shares this test system. Nature of the series: Erythroid populations (CD71, Ter119, FSC-A flow cytometry) in shRNA knockdown cells. Format: cell-based, murine. The note with it: day 5. How it is done: as §6, §3
Series [10] shares this test system. Nature of the series: Thiazole orange (TO) discrimination of nucleated erythroblasts and enucleated progeny in shRNA knockdown cells. The following applies: expanded 2 days, differentiated 3 days. In kind it is cell-based, murine. How it is done: as §6, §3

Data on 5 compounds can be found in patent US20190270992A1, “METHODS OF CONTROLLING RED BLOOD CELL PRODUCTION” (WISCONSIN ALUMNI RESEARCH FOUNDATION, priority 2018, published 2019).

Entries after “also recorded” stand apart in the source; their conditions may differ.

As for `Cl.NCC(=O)CCC(=O)O` [5-ALA, 5-aminolevulinic acid hydrochloride], in series [1], the Slc30a1 expression entry was “increased”.
Turning to `CC(=O)CC(=O)CCC(=O)O` [Succinylacetone, succinylacetone], in [2], the “decrease of heme in oxyhemoglobin” value came to 3.4 fold and the “decrease of total heme” value amounted to 2.9 fold. In addition, in series [3], the ACTB expression entry is listed as “unaffected”, the HBA1 expression entry is reported as “reduced”, the HBB expression entry is reported as “reduced” and the SLC30A1 expression entry is “reduced”. In [4], the cellularity entry was “did not impact”.
For `c1ccc(CN(CCN(Cc2ccccn2)Cc2ccccn2)Cc2ccccn2)nc1` [TPEN, N,N,N′,N′-Tetrakis(2-pyridylmethyl)ethylenediamine], in series [5] (10 NM TPEN in expansion culture, day 3), the live cell population result is “considerably decreased”. Further, the “intracellular zinc levels in erythroid precursors of varying maturation stage” value in [5] (10 NM TPEN in expansion culture, FluoZin-3 MFI) is on record as “reduced”.
With `[Cl-].[Cl-].[Zn+2]` [ZnCl2], the “effect of adding ZnCl2 to the media on the actions of TPEN” value in series [5] (10 NM TPEN, 20 NM ZnCl2 added back) is reported as “negated the actions of TPEN”.
As to “TGATAATTGTCACTGACAG (listed as DNA, chemistry not fully specified) [shRNAs targeting Slc39a8, retrovirus-expressed shRNA against mouse zinc importer Slc39a8]”, the “Slc30a1 mRNA levels upon Slc39a8 loss” value in series [6] is on record as “did not impact”. Moreover, the “downregulation of Slc39a8 mRNA” value came out at 71% in series [7] (day five (expanded two days, differentiated three days)) and 86% in [7] (day two (expanded for two days)). Moreover, the “intracellular zinc in all (more mature) populations” value in series [8] (erythroid differentiation culture, day 5) is “no effect; also recorded: did not alter”. Moreover, the “decrease of intracellular zinc in R3 cells” value in [8] (expansion culture, day 2) is listed as 3.3 fold. For the same compound, the cellularity result in series [9] is reported as “did not impact”. The “cell populations (CD71/TO)” value in series [10] is “did not influence”.
